Experimental findings from patent publication US6461822B2, “Methods of screening compounds for their ability to inhibit the production of inflammatory cytokines” (Pfizer Inc., priority 1998, dated 2002) are described below.

Series [1] relates to ATP-induced IL-1β production. In words: IL-1β production assay, ELISA method (ATP-induced IL-1β production by LPS-activated human monocytes). It is filed as cell-based. The note with it: for ATP-induced IL-1β production: human monocytes treated continuously with agent, FIG. 2A. As for the experimental part:
IL-1β production assay—ELISA method. Human monocytes were isolated from heparinized blood collected from normal volunteers. 100 ml of blood was diluted with 20 ml of RPMI 1640 medium that contained 5% FBS, 25 mM Hepes, pH 7.3, 2 mM glutamine, and 1% penicillin/streptomycin (Maintenance Medium). 30 ml of this suspension then was layered onto 15 ml of Lymphocyte Separation Medium (Organo Technicon) and centrifuged for 30 min at 1400 rpm at room temperature in a clinical centrifuge. The resulting mononuclear cell layer was harvested, diluted with Maintenance Medium, and the cells were pelleted by centrifugation. The recovered cells were washed with Maintenance Medium by repeated centrifugation. Each well of a 96 well plate was seeded with 2×10^5 mononuclear cells in 0.1 ml of Maintenance Medium; monocytes were allowed to adhere for 2 hr, then the medium (containing non-adherent cells) was replaced with 0.1 ml of fresh medium, and the monocytes were incubated overnight at 37° C. Monocytes were activated with 10 ng/ml of LPS (E. coli; serotype 055:B5) for 2 hr after which the medium was replaced with 0.1 ml of RPMI 1640, 20 mM Hepes, pH 6.9, 100 units/ml penicillin, 100 μg/ml streptomycin, 1% FBS (Release Medium) containing the indicated concentration of test agent; compounds were dissolved in DMSO and the final DMSO concentration in all wells was maintained at 0.2%. […] Cells subsequently were removed by centrifugation, media supernatants were harvested, and IL-1β levels within the media samples were determined with a specific ELISA kit (R and D Systems); each data point is the average of quadruplicate determinations.
(In general: In an ELISA, binding on a coated surface is turned into a signal by an enzyme label.)

The test system of series [2] is soluble polypeptides of human monocytes (31, 32, 56 kDa). In words: Identification of DASU binding proteins: labeling of monocyte polypeptides by [14C]DASUs. The following applies: [14C]labeled ligand 100 nM to 10 μm; FIG. 3. As for the experimental part: Identification of DASU binding proteins. Human monocytes (isolated as described above and plated on 6 cm dishes) were treated with [^14C]Compound 1 in 3 ml of Release Medium (devoid of FBS) for 60 min after which cells were washed twice with 5 ml of Release Medium containing 5% FBS and suspended in 1 ml of 25 mM Hepes, pH 7, 150 mM NaCl, 1 μg/ml pepstatin, 1 μg/ml leupeptin, containing 0.5% saponin. Lysates were clarified by ultracentrifugation and the recovered soluble fractions were exchanged into 10 mM Tris, pH 8, containing 1 μg/ml each of pepstatin and leupeptin with the use of Centricon 30 concentration units. Final concentrates were lyophilized and then solubilized in SDS sample buffer.

A further series deals with T1, rDBP-32 (Homo sapiens, UniProt O00299).
T1 construct: cleaved with thrombin to yield full-length rDBP-31 and rDBP-32 polypeptides; GST (N, cleaved yes); made in house; host or cells: E. coli (as for DBP-31: BL21 [DE3], pGEX2T)
In words: Labeling rDBPs with [14C]Compound 2 (SDS PAGE, phosphorimager). It is filed as binding. The note with it: FIG. 7A. From the text: (§1) Labeling rDBPs. […].

The target of series [3] is bacterial glutathione S-transferase (Schistosoma japonicum, UniProt P08515). It is filed as binding. The note with it: identical conditions; FIG. 7A.
Description: as §1

Series [4] relates to porcine liver carboxylesterase. In words: in vitro carboxylesterase enzyme assay with p-nitrophenyl propionate. The following applies: co-incubation with 100 μM.

Sequence of bacterial glutathione S-transferase (P08515 2-218 limits assumed): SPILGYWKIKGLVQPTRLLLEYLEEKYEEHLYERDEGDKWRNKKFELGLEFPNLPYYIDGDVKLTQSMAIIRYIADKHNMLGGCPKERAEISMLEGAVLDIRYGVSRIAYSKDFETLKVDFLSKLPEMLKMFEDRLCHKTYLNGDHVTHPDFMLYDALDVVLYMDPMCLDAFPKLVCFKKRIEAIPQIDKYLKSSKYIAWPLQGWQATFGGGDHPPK

For `CC(C)c1cc(Cl)cc(C(C)C)c1NC(=O)NS(=O)(=O)c1cc(C2CO2)ccc1F` (centres unmarked) [Compound 1, 1-(4-Chloro-2,6-diisopropyl-phenyl)-3-[2-fluoro-5-oxiranylbenzene-sulfonyl]-urea], the melting point (commonly the temperature of the solid-liquid transition) is 126 to 130 °C. The “IL-1 production of [14C]DASU-treated cells exposed to ATP” value in series [1] (FIG. 3B) is given as “dose-dependent inhibition”. Moreover, in series [1], the “ATP-induced IL-1β production” value is reported as “dose-dependent inhibition”. For the same molecule, the “radiolabeled polypeptides in soluble fraction of monocyte extracts” value in series [2] is “several radiolabeled polypeptides were detected”.
As to `O=C(Nc1c2c(cc3c1CCC3)CCC2)NS(=O)(=O)c1cc(C2CO2)ccc1F` (centres unmarked) [Compound 2, 1-(1,2,3,5,6,7-Hexahydro-s-indacen-4-yl)-3-[2-fluoro-5-oxiranyl-benzenesulfonyl]-urea], the “ATP-induced IL-1β production” value in series [1] was “dose-dependent inhibition”. In addition, in series [1] (pretreated 60 min, then ATP without compound, FIG. 2B), the “IL-1β production after pretreatment and ATP in absence of compound” value is “remained suppressed”. For the same molecule, on rDBP-32, the “labeling of rDBP-32” value was “labeled by [^14C]Compound 2 in a concentration dependent manner”. For the same molecule, in series [3], the “labeling of bacterial glutathione S-transferase” value is “not labeled”. Besides, in series [2], the “radiolabeled polypeptides in soluble fraction of monocyte extracts” value is on record as “several radiolabeled polypeptides were detected”. Besides, the “reduction of observed carboxylesterase enzymatic activity” value in series [4] stood at 67%.
As to `O=[N+]([O-])c1ccc(OCC2CO2)cc1` (centres unmarked) [2-(4-nitro-phenoxymethyl)-oxirane, reference compound], in series [1], the “ATP-induced IL-1β production” value was “did not inhibit”.
